Test results taken from patent publication US20230085307A1, “PYRIDAZINONE COMPOUND AND HERBICIDE” (NISSAN CHEMICAL CORPORATION, priority 2019, published 2023).

system: green foxtail; test: Test Example 5: herbicidal effect by foliage application, plastic box (Table 20, symbol G); assay type: in vivo, green foxtail (Setaria viridis); settings: foliage application, 320 g/ha, 3 weeks after application
Outline: (§1)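 Plants sown in sterilized diluvial soil and grown 14 days in a greenhouse at 25° C to 30° C, then sprayed on the foliage with the compound's emulsion diluted in water to a predetermined herbicide amount. Injury to weeds and crops scored three weeks after application on a visual rating scale.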

SMILES | effect on green foxtail (G)
CSCCSCc1ccc(-c2sc3ccccc3c2-c2c(O)c(C)nn(C)c2=O)cc1 [1-253] | 3 (Herbicidal rate of 40% or more and less than 70%)
Cc1ccc(-c2sc3ccc(F)cc3c2-c2c(O)c(C)nn(C)c2=O)cc1 [2-012] | 5 (Herbicidal rate of 90% or more (almost completely withered))

system: rice flat sedge; test: Test Example 3: herbicidal effect by foliage application, Wagner pot (Table 18, symbol E); assay type: in vivo, rice flat sedge (Cyperus iria); settings: 320 g/ha
Outline: (§2)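 Plants were sown in alluvial soil held under 0.1–0.5 cm standing water and grown 14 days in a greenhouse at 25–30 °C. An emulsifiable formulation, water-diluted to the set dose, was then sprayed onto the foliage, and effects were scored three weeks later using previously defined criteria.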

SMILES | herbicidal effect on E (rice flat sedge), rating 0-5
CSCCSCc1ccc(-c2sc3ccccc3c2-c2c(O)c(C)nn(C)c2=O)cc1 [1-253] | 3 (Herbicidal rate of 40% or more and less than 70%)
Cc1ccc(-c2sc3ccc(F)cc3c2-c2c(O)c(C)nn(C)c2=O)cc1 [2-012] | 5 (Herbicidal rate of 90% or more (almost completely withered))

system: late watergrass; test: Test Example 1: herbicidal activity, application before weed generation under submerged conditions (Table 16, symbol A); assay type: in vivo, late watergrass (Echinochloa oryzicola); settings: 320 g/ha applied herbicide
Outline: (§3)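 Alluvial soil was flooded to 4 cm depth, weed seeds were sown mixed and 2.5-leaf rice seedlings were transplanted. On sowing day, the compound's emulsion, diluted in water to a set dose, was applied to the water surface. Plants grew at 25–30 °C and were scored 0–5 after three weeks.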

SMILES | Herbicidal effect on A: late watergrass (grade 0-5)
CSCCSCc1ccc(-c2sc3ccccc3c2-c2c(O)c(C)nn(C)c2=O)cc1 [1-253] | 3 (Herbicidal rate of 40% or more and less than 70%)
Cc1ccc(-c2sc3ccc(F)cc3c2-c2c(O)c(C)nn(C)c2=O)cc1 [2-012] | 3 (Herbicidal rate of 40% or more and less than 70%)

system: windgrass; test: Test Example 4: herbicidal effect by soil treatment (Table 19, symbol L); assay type: in vivo, windgrass (Apera spica-venti); settings: 320 g/ha
Outline: (§4)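 Three weeks of greenhouse growth at 25° C. to 30° C. followed a uniform surface spray of water-diluted emulsion at a predetermined herbicide amount. Seeds had been sown beforehand under about 1.5 cm of sterilized diluvial soil. Grading followed criteria set out in an earlier test.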

SMILES | herbicidal effect rating, L: windgrass
Cc1ccc(-c2sc3ccc(F)cc3c2-c2c(O)c(C)nn(C)c2=O)cc1 [2-012] | 0 (Herbicidal rate of 5% or less (almost no effect))

same assay, conditions: AAH 320 g/ha

SMILES | L: windgrass, herbicidal effect rating
CSCCSCc1ccc(-c2sc3ccccc3c2-c2c(O)c(C)nn(C)c2=O)cc1 [1-253] | 0 (Herbicidal rate of 5% or less (almost no effect))

system: southern crabgrass; test: Test Example 5: herbicidal effect by foliage application, plastic box (Table 20, symbol F); assay type: in vivo, southern crabgrass (Digitaria ciliaris); settings: foliage application, 320 g/ha, 3 weeks after application
Outline: as §1

SMILES | effect on southern crabgrass (F)
CSCCSCc1ccc(-c2sc3ccccc3c2-c2c(O)c(C)nn(C)c2=O)cc1 [1-253] | 1 (Herbicidal rate of 5% or more and less than 20%)
Cc1ccc(-c2sc3ccc(F)cc3c2-c2c(O)c(C)nn(C)c2=O)cc1 [2-012] | 5 (Herbicidal rate of 90% or more (almost completely withered))

system: oval-leafed pondweed; test: Test Example 2: herbicidal activity, application during weed generation under submerged conditions (Table 17, symbol C); assay type: in vivo, oval-leafed pondweed (Monochoria vaginalis); settings: AAH 320 g/ha; application during weed generation, submerged conditions
Outline: (§5)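 Wagner pot, alluvial soil, 4 cm flood; mixed sowing of all species; greenhouse 25° C.–30° C. Emulsifiable formulation, water-diluted to predetermined dose, applied to paddy water at 1–2 leaf stage. Effect rated at 3 wk using the earlier test's scoring criteria.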

SMILES | herbicidal effect rating, C: oval-leafed pondweed
CSCCSCc1ccc(-c2sc3ccccc3c2-c2c(O)c(C)nn(C)c2=O)cc1 [1-253] | 0 (Herbicidal rate of 5% or less (almost no effect))
Cc1ccc(-c2sc3ccc(F)cc3c2-c2c(O)c(C)nn(C)c2=O)cc1 [2-012] | 0 (Herbicidal rate of 5% or less (almost no effect))

system: Japanese bulrush; test: Test Example 1: herbicidal activity, application before weed generation under submerged conditions (Table 16, symbol B); assay type: in vivo, Japanese bulrush (Schoenoplectus juncoides); settings: 320 g/ha applied herbicide
Outline: as §3

SMILES | Herbicidal effect on B: Japanese bulrush (grade 0-5)
CSCCSCc1ccc(-c2sc3ccccc3c2-c2c(O)c(C)nn(C)c2=O)cc1 [1-253] | 3 (Herbicidal rate of 40% or more and less than 70%)
Cc1ccc(-c2sc3ccc(F)cc3c2-c2c(O)c(C)nn(C)c2=O)cc1 [2-012] | 0 (Herbicidal rate of 5% or less (almost no effect))

system: Chinese sprangletop; test: Test Example 3: herbicidal effect by foliage application, Wagner pot (Table 18, symbol D); assay type: in vivo, chinese sprangletop (Leptochloa chinensis); settings: 320 g/ha
Outline: as §2

SMILES | herbicidal effect on D (Chinese sprangletop), rating 0-5
CSCCSCc1ccc(-c2sc3ccccc3c2-c2c(O)c(C)nn(C)c2=O)cc1 [1-253] | 3 (Herbicidal rate of 40% or more and less than 70%)
Cc1ccc(-c2sc3ccc(F)cc3c2-c2c(O)c(C)nn(C)c2=O)cc1 [2-012] | 5 (Herbicidal rate of 90% or more (almost completely withered))

system: wild oat; test: Test Example 5: herbicidal effect by foliage application, plastic box (Table 20, symbol I); assay type: in vivo, wild oat (Avena fatua); settings: foliage application, 320 g/ha, 3 weeks after application
Outline: as §1

SMILES | effect on wild oat (I)
CSCCSCc1ccc(-c2sc3ccccc3c2-c2c(O)c(C)nn(C)c2=O)cc1 [1-253] | 0 (Herbicidal rate of 5% or less (almost no effect))
Cc1ccc(-c2sc3ccc(F)cc3c2-c2c(O)c(C)nn(C)c2=O)cc1 [2-012] | 0 (Herbicidal rate of 5% or less (almost no effect))

system: blackgrass; test: Test Example 5: herbicidal effect by foliage application, plastic box (Table 20, symbol J); assay type: in vivo, blackgrass (Alopecurus myosuroides); settings: foliage application, 320 g/ha, 3 weeks after application
Outline: as §1

SMILES | effect on blackgrass (J)
CSCCSCc1ccc(-c2sc3ccccc3c2-c2c(O)c(C)nn(C)c2=O)cc1 [1-253] | 0 (Herbicidal rate of 5% or less (almost no effect))
Cc1ccc(-c2sc3ccc(F)cc3c2-c2c(O)c(C)nn(C)c2=O)cc1 [2-012] | 4 (Herbicidal rate of 70% or more and less than 90%)

system: Italian ryegrass; test: Test Example 4: herbicidal effect by soil treatment (Table 19, symbol K); assay type: in vivo, Italian ryegrass (Lolium multiflorum); settings: 320 g/ha
Outline: as §4

SMILES | herbicidal effect rating, K: Italian ryegrass
Cc1ccc(-c2sc3ccc(F)cc3c2-c2c(O)c(C)nn(C)c2=O)cc1 [2-012] | 4 (Herbicidal rate of 70% or more and less than 90%)

same assay, conditions: AAH 320 g/ha

SMILES | K: Italian ryegrass, herbicidal effect rating
CSCCSCc1ccc(-c2sc3ccccc3c2-c2c(O)c(C)nn(C)c2=O)cc1 [1-253] | 0 (Herbicidal rate of 5% or less (almost no effect))

system: redroot pigweed; test: Test Example 4: herbicidal effect by soil treatment (Table 19, symbol N); assay type: in vivo, redroot pigweed (Amaranthus retroflexus); settings: 320 g/ha
Outline: as §4

SMILES | herbicidal effect rating, N: redroot pigweed
Cc1ccc(-c2sc3ccc(F)cc3c2-c2c(O)c(C)nn(C)c2=O)cc1 [2-012] | 5 (Herbicidal rate of 90% or more (almost completely withered))

same assay, conditions: AAH 320 g/ha

SMILES | N: redroot pigweed, herbicidal effect rating
CSCCSCc1ccc(-c2sc3ccccc3c2-c2c(O)c(C)nn(C)c2=O)cc1 [1-253] | 3 (Herbicidal rate of 40% or more and less than 70%)

system: late watergrass; test: Test Example 2: herbicidal activity, application during weed generation under submerged conditions (Table 17, symbol A); assay type: in vivo, late watergrass (Echinochloa oryzicola); settings: AAH 320 g/ha; application during weed generation, submerged conditions
Outline: as §5

SMILES | herbicidal effect rating, A: late watergrass
CSCCSCc1ccc(-c2sc3ccccc3c2-c2c(O)c(C)nn(C)c2=O)cc1 [1-253] | 3 (Herbicidal rate of 40% or more and less than 70%)
Cc1ccc(-c2sc3ccc(F)cc3c2-c2c(O)c(C)nn(C)c2=O)cc1 [2-012] | 3 (Herbicidal rate of 40% or more and less than 70%)

system: barnyard grass; test: Test Example 5: herbicidal effect by foliage application, plastic box (Table 20, symbol H); assay type: in vivo, barnyard grass (Echinochloa crus-galli); settings: foliage application, 320 g/ha, 3 weeks after application
Outline: as §1

SMILES | effect on barnyard grass (H)
CSCCSCc1ccc(-c2sc3ccccc3c2-c2c(O)c(C)nn(C)c2=O)cc1 [1-253] | 5 (Herbicidal rate of 90% or more (almost completely withered))
Cc1ccc(-c2sc3ccc(F)cc3c2-c2c(O)c(C)nn(C)c2=O)cc1 [2-012] | 4 (Herbicidal rate of 70% or more and less than 90%)

system: barnyard grass; test: Test Example 3: herbicidal effect by foliage application, Wagner pot (Table 18, symbol H); assay type: in vivo, barnyard grass (Echinochloa crus-galli); settings: 320 g/ha
Outline: as §2

SMILES | herbicidal effect on H (barnyard grass), rating 0-5
CSCCSCc1ccc(-c2sc3ccccc3c2-c2c(O)c(C)nn(C)c2=O)cc1 [1-253] | 5 (Herbicidal rate of 90% or more (almost completely withered))
Cc1ccc(-c2sc3ccc(F)cc3c2-c2c(O)c(C)nn(C)c2=O)cc1 [2-012] | 5 (Herbicidal rate of 90% or more (almost completely withered))

system: persian speedwell; test: Test Example 5: herbicidal effect by foliage application, plastic box (Table 20, symbol R); assay type: in vivo, Persian speedwell (Veronica persica); settings: foliage application, 320 g/ha, 3 weeks after application
Outline: as §1

SMILES | effect on persian speedwell (R)
CSCCSCc1ccc(-c2sc3ccccc3c2-c2c(O)c(C)nn(C)c2=O)cc1 [1-253] | 5 (Herbicidal rate of 90% or more (almost completely withered))
Cc1ccc(-c2sc3ccc(F)cc3c2-c2c(O)c(C)nn(C)c2=O)cc1 [2-012] | 5 (Herbicidal rate of 90% or more (almost completely withered))
